According to publication PMC9502993 (Pharmaceuticals, 2022):
Values joined by “and” are separate entries in the source; they are usually repeats but may differ in a detail not shown here. Identical values can stand only once. Like-named read-outs stand apart in the source and are kept apart here.

Experiments:
[1] = system: Caco-2 cell barrier; test: Cell barrier integrity (TEER, cellZscope2); format: cell-based
[2] = system: HepG2 cells; test: In Vitro Micronuclei Plus assay (flow cytometry)
[3] = Cell viability assay (Orangu WST-8, formazan-based); details: human, HEK293T cells
[4] = system: HEK293T cells; test: as above; details: 48 h
[5] = as above; details: human, Caki-2 cells
[6] = system: Caki-2 cells; test: as above; details: 48 h
[7] = system: HepG2 cells; test: as above
Protocol: For the cell viability assay, HepG2 cells were incubated with various
normalized to the absorbance of the respective DMSO value to calculate cell viability. The experiments were performed in biological
(1 picture or pasted object on this page, not shown here)

[8] = system: HEK293T cells; test: Ca2+-release assay (Fluo-8-AM), GPCR off-target; format: cell-based
Protocol: Next, 50,000 HEK293T cells were seeded in a 96-well poly-D-lysine-coated plate and incubated at 37 °C for 24 h. Cells were incubated with 4 µM Fluo-8-AM in HBSS for 1 h at 37 °C. After 1 h, the Fluo-8/HBSS was replaced by 100 µL HBSS. Five images per second were taken using an ImageXpress Micro Confocal High Content Imaging System (Molecular Device, San Jose, CA, USA). […] An image was taken every second for the next 20 s. The MetaXpress Software Version 6.7.1.157 (San Jose, CA, USA) was used to analyze the data. A threshold of fluorescence intensity was defined using cells before treatment and all cells with a fluorescence signal above the threshold level were counted and related to all cells.

[9] = system: HEK293T cells; test: IP3 assay, GPCR off-target; format: cell-based
[10] = Stability assay in human liver microsomes; format: in vitro ADME; details: pH 7.4, human liver microsomes 0.5 mg/mL
Protocol: The reaction was started with 1 mM NADPH diluted in potassium phosphate buffer. As control, samples without NAPDH were used. After various time points (0 h, 1 h, 2 h, 4 h), the reaction was stopped by adding ice-cold acetonitrile. The samples were centrifuged (5 min, 4 °C, 10,000× g) and supernatant was stored at −80 °C until the remaining drug concentration was determined by LC-MS/MS as described in detail below. The concentrations of the drugs were plotted against time and the elimination constant (k) was calculated from the slope (m):m = −k
Equation to determine half-life:T1/2 = 0.693/K
Equation to determine intrinsic clearance:Cl = Ln(2) × 1000/T1/2/protein concentration

[11] = biological target: T1, P-glycoprotein (Homo sapiens, UniProt P08183); details: cited from earlier work
T1 construct: endogenous in cells; host or cells: Caco-2 (high P-gp), Calu-3 (low P-gp)
T1 sequence (P08183 whole entry): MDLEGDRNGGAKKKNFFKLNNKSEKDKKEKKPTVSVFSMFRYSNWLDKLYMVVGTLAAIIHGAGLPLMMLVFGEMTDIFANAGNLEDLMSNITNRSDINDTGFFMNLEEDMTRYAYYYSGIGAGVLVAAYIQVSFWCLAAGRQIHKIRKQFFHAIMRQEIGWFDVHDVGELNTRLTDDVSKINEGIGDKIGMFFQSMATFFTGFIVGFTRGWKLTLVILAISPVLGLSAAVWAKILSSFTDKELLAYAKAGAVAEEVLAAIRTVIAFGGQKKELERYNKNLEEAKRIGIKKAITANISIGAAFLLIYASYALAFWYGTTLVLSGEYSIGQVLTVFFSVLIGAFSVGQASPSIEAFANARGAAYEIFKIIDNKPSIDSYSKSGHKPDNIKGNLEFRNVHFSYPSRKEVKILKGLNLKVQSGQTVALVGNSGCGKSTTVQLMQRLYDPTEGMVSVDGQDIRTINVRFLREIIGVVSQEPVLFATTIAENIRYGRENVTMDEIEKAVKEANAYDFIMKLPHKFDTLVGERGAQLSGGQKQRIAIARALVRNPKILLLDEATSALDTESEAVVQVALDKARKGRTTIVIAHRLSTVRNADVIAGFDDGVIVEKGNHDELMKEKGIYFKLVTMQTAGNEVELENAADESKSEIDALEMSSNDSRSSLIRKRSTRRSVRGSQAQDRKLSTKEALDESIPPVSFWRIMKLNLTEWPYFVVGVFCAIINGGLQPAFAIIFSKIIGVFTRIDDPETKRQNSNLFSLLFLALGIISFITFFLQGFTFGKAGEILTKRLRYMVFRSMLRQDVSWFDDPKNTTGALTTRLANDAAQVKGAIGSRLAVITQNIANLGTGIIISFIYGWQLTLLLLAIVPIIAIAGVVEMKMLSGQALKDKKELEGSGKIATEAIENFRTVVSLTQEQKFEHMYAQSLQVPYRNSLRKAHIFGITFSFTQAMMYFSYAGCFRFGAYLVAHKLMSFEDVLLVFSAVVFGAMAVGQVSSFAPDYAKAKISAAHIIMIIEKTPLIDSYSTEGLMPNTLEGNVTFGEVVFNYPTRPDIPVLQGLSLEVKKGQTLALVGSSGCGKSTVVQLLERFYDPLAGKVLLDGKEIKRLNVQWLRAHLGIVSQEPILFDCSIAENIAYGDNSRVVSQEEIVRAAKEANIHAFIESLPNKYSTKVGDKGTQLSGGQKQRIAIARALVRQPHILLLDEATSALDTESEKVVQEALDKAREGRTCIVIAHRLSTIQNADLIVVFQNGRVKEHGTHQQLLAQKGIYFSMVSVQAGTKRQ

[12] = system: MERS-CoV; details: MERS-CoV ref 6; read-out: EC50 (50% reduction of the virus titer); cited from earlier work
[13] = system: HCoV-229E; details: HCoV-229E ref 6; read-out: EC50 (50% reduction of the virus titer); cited from earlier work
[14] = system: Chikungunya virus; design: method as in PMID 31931103; details: Chikungunya virus ref 5; read-out: EC50 (50% reduction of the virus titer); cited from earlier work
[15] = system: various viruses, such as corona- and Ebolaviruses; details: cited from earlier work
[16] = system: lung cancer cell line A549; design: method as in PMID 31931103; details: A549 ref 5; cited from earlier work
[17] = system: colon cancer cell line HT29; details: HT29 ref 17; cited from earlier work
[18] = system: hepatocellular carcinoma cell line Huh-7; details: Huh-7 ref 6; cited from earlier work
[19] = system: HeLa; details: HeLa ref 6; cited from earlier work
[20] = system: lung fibroblast cell line MRC-5; design: method as in PMID 31931103; details: MRC-5 ref 5; cited from earlier work
[21] = system: primary monocytes; design: method as in PMID 35336926; details: primary monocytes ref 9; cited from earlier work
[22] = system: primary M1 macrophages; design: method as in PMID 35336926; details: primary M1 macrophages ref 9; cited from earlier work
[23] = system: primary M2 macrophages; design: method as in PMID 35336926; details: primary M2 macrophages ref 9; read-out: CC50 (no cytotoxic effects up to); cited from earlier work
[24] = system: T cells; design: method as in PMID 35336926, PMID 1360266; details: T cells ref 9, 34; cited from earlier work
[25] = system: primary dendritic cells; design: method as in PMID 35336926; details: primary dendritic cells ref 9; cited from earlier work
[26] = mice, formulated in hydroxypropyl-β-cyclodextrin, intraperitoneal ref 30; cited from earlier work
[27] = system: non-transformed primary cells; details: several non-transformed primary cells ref 6, 20, 30; cited from earlier work
[28] = system: Caco-2 cells; test: Cellular uptake assay (LC-MS/MS)
[29] = system: Calu-3 cells; test: Cellular uptake assay (LC-MS/MS)
[30] = system: Caco-2 cell barrier; test: Transport assay across cell barrier
[31] = system: Calu-3 cell barrier; test: Transport assay across cell barrier
[32] = system: HEK293T cells; test: cAMP assay (GloSensor luciferase), GPCR off-target
[33] = system: Caco-2 cells; test: Cell viability assay (Orangu WST-8, formazan-based); details: for effect on cell viability: 48 h
[34] = system: Calu-3 cells; test: as above
[35] = system: Caco-2 cells; details: human, 25 µM
[36] = system: Calu-3 cells; details: human, 25 µM
[37] = system: primary immune cells; details: primary immune cells ref 9; cited from earlier work
[38] = system: MDA-MB-231 cell line; design: method as in PMID 32470302; details: MDA-MB-231, 100 nM ref 39; cited from earlier work
[39] = system: Caco-2 cell barrier; details: human, 200 µM
[40] = system: Calu-3 cell barrier; details: human, 24 h, 200 µM
[41] = 10 µM ionomycin, positive control

Compound: O=C(O)CN(CCOCCOCCN(CC(=O)O)CC(=O)O)CC(=O)O [EGTA, reference compound]
- effect on TEER readings (cell barrier integrity) ([1]; 10 mM, positive control): caused a drop in TEER readings

Compound: CC(C)Cc1ccc(C(C)C(=O)O)cc1 (centres unmarked) [ibuprofen, reference compound]
- genotoxicity by the criteria of OECD guideline 487 ([2]; positive and negative control): no effects

Compound: COC(=O)[C@H]1[C@@H](O)[C@@]2(O)c3c(OC)cc(O[C@@H]4O[C@@H]([C@H](O)CO)CO[C@H]4OC)cc3O[C@@]2(c2ccc(OC)cc2)[C@@H]1c1ccccc1 [silvestrol]
- CC50 at 48 h [3]: 16 nM
- CC50 [4]: 15.9 nM
- CC50 at 48 h [5]: 37 nM
- CC50 [6]: 37.2 nM
- effect on cell viability ([7]; 48 h): only minor effects
- reduction of viability ([7]; concentrations up to 1000 nM): about 50%
- induction of Ca2+-release ([8]; silvestrol 10, 50, 100 nM): did not significantly induce
- induction of IP3 synthesis ([9]; silvestrol): did not significantly induce
- half-life at 100 nM ([10]; 100 nM): 11.6 ± 1.2 h
- microsomal CLint at 100 nM ([10]; 100 nM, read-out: intrinsic clearance): 1.7 ± 0.5 µL/min/mg
- effect on TEER readings (cell barrier integrity) ([1]; 50 and 100 nM, 20 h): reduced TEER readings only slightly
- substrate of P-glycoprotein [11]: substrate
- EC50 [12]: ~5 nM
- EC50 [13]: ~5 nM
- EC50 [14]: ~5 nM
- reduction of virus titers [15]: up to 4 log phases
- EC50 ([15]; read-out: EC50 for inhibition of virus replication): 1 to 100 nM
- EC50 ([15]; various viruses, such as corona- and Ebolaviruses (abstract), read-out: EC50): ~5 nM
- CC50 [16]: 9.42 nM
- CC50 [17]: 0.7 nM
- CC50 [18]: 30 nM
- CC50 [19]: 5 nM
- cytotoxicity (no cytotoxicity up to) [20]: > 50 µM
- CC50 [21]: 29 nM
- CC50 [22]: 45.6 nM and 46 nM
- CC50 [23]: > 100 nM
- cytotoxicity (no cytotoxic effects up to) [24]: > 100 nM
- cytotoxicity (no cytotoxic effects up to) [25]: > 100 nM
- intraperitoneal systemic availability [26]: 100%
- cytotoxicity [27]: no major cytotoxicity
- cellular uptake (maximum) ([28]; 25 nM, 2 and 4 h): about 2.5 pg/µg protein
- uptake related to used silvestrol ([28]; 25 nM, at maximum): ≈ 1.3%
- change of intracellular silvestrol level on inhibition of P-glycoprotein ([28]; preincubated with 1 µM cyclosporine 60 min): leads to an increase in intracellular silvestrol levels
- uptake related to used amount of silvestrol ([29]; at maximum): ≈ 3.7%
- cellular uptake (maximum) ([29]; concentration- and time-dependent): about 7.7 pg/µg protein
- transport rate ([30]; 50 nM, 24 h): 1.3%
- transport rate ([30]; 100 nM, 4 h): 0.5%
- transport rate ([30]; 100 nM, 24 h): 1.9%
- transport rate ([31]; 50 nM, 24 h): 7.8%
- transport rate ([31]; 100 nM, 4 h): 0.8%
- transport rate ([31]; 100 nM, 24 h): 10.6%
- clastogenic effects (micronuclei) ([2]; 50 nM): clastogenic effects
- aneugenic effects (hypodiploid cells) ([2]; silvestrol concentrations up to 50 nM): no aneugenic effects
- induction of cAMP synthesis ([32]; silvestrol 10, 50, 100 nM): did not significantly induce
- effect on cell viability [33]: did not reduce viability below 50%
- effect on cell viability ([33]; listed as Silvestrol): only minor effects
- reduction of viability ([33]; concentrations up to 1000 nM): about 50%
- change of cytotoxicity on inhibition of P-glycoprotein ([33]; preincubated with 1 µM cyclosporine 60 min, then 48 h): increased the cytotoxic potential
- effect on cell viability ([34]; 48 h): did not reduce viability below 50%
- reduction of viability ([34]; concentrations up to 1000 nM): about 50%

Compound: Cc1ccc(-c2cc(C(F)(F)F)nn2-c2ccc(S(N)(=O)=O)cc2)cc1 [celecoxib, reference compound]
- half-life at 10 µM ([10]; 10 µM): 2.3 ± 0.5 h
- microsomal CLint at 10 µM ([10]; 10 µM, read-out: intrinsic clearance): 10.5 ± 2 µL/min/mg
- uptake rate [35]: about 2.5 ng/µg protein
- uptake rate [36]: about 2.5 ng/µg protein
- substrate of P-glycoprotein [11]: not a substrate of P-glycoprotein

Compound: CONC(=O)[C@H]1[C@@H](O)[C@@]2(O)c3c(OC)cc(OC)cc3O[C@@]2(c2ccc(OC)cc2)[C@@H]1c1ccccc1 [CR31B (-)]
- cytotoxicity compared with silvestrol [37]: comparable cytotoxic effects to those of silvestrol

Compound: COc1cc2c(c(OC)n1)[C@]1(O)[C@H](O)[C@H](CN(C)C)[C@@H](c3ccccc3)[C@]1(c1ccc(C#N)cc1)O2 [zotatifin, reference compound]
- effect on cell cycle and apoptosis [38]: induces a G2 cell cycle block and apoptosis
- clastogenic effects (micronuclei) ([2]; 10 nM only, not concentration dependent): some clastogenic and aneugenic effects

Compound: NC(=O)N1c2ccccc2C=Cc2ccccc21 [carbamazepine]
- transport rate ([39]; 4 h): approx. 45%
- transport rate [40]: 74%

Compound: C=C[C@@]1(C)CC(=O)[C@]2(O)[C@@]3(C)[C@@H](O)CCC(C)(C)[C@@H]3[C@H](O)[C@H](OC(C)=O)[C@@]2(C)O1 [forskolin, reference compound]
- induction of cAMP formation ([32]; 5 µM forskolin, positive control): induced significant increases

Compound: C[C@H](CCC(=O)O)C[C@H](C)C[C@H](C)C(=O)/C=C(\O)[C@H](C)C[C@H](C)C/C=C/[C@@H](C)[C@@H](O)[C@@H](C)[C@@H](O)C[C@@H]1CC[C@@](C)([C@H]2CC[C@@](C)([C@@H](C)O)O2)O1 [ionomycin, reference compound]
- induction of Ca2+-release [8, 41]: induced significant increases
- induction of IP3 synthesis [9, 41]: induced significant increases

Compound: NC(N)=Nc1nc(CSCCC(N)=NS(N)(=O)=O)cs1 [famotidine]
- transport rate ([39]; 4 h): 0.7%
- transport rate ([39]; 24 h): 1.3%
- transport rate [40]: 8.3%
